In the experiment the target is T1, PE-labeled human PD-L1-Ig binding to Jurkat cell line over-expressing human PD-1 (Jurkat-PD-1) (Homo sapiens, UniProt Q15116).
T1 construct: expressed in transfected cells; host or cells: Jurkat
As to the kind of experiment: Jurkat-PD-1 Cell Binding High-Content Screening Assay (CBA): Method 1.

Setting [1] is: Jurkat-hPD-1 cells, PE-labeled PD-L1-Ig 20 nM final, read-out: Jurkat HPDL1 PD1 IC50 (uM) (Method 1).

Like-named read-outs stand apart in the source and are kept apart here. Numbered stars: 1 amine (or outer) side, 2 acyl side, 3 side chain; on linkers, the order of the positions; unused ones are H or OH. Bridge positions count the residues as written; N and C are the ends. Square brackets hold non-standard residues; d marks the D form. Peptide text beside a SMILES is read from it. * marks the point of attachment. ξ: configuration not given here. X29 = O=C([C@H](Cc1ccc(-c2cc(F)cc(F)c2)cc1)N[*:1])[*:2]; X30 = CCOc1cccc(-c2ccc(C[C@H](N[*:1])C(=O)[*:2])cc2)c1; Ala(1H-tetrazol-5-yl) = N[C@@H](Cc1nnn[nH]1)C(=O)O; Phe(4-COOH) = N[C@@H](Cc1ccc(C(=O)O)cc1)C(=O)O; Bip = N[C@@H](Cc1ccc(-c2ccccc2)cc1)C(=O)O; Phe(3-Me) = Cc1cccc(C[C@H](N)C(=O)O)c1; Phe(2-F) = N[C@@H](Cc1ccccc1F)C(=O)O; Bta = N[C@@H](Cc1csc2ccccc12)C(=O)O; dBta = N[C@H](Cc1csc2ccccc12)C(=O)O; Val(3-OH) = CC(C)(O)[C@H](N)C(=O)O; 4Pal = N[C@@H](Cc1ccncc1)C(=O)O; d4Pal = N[C@H](Cc1ccncc1)C(=O)O; Cha = N[C@@H](CC1CCCCC1)C(=O)O; Ile(3ξ) = CCC(C)[C@H](N)C(=O)O; Thr(3ξ) = CC(O)[C@H](N)C(=O)O; ξCha = NC(CC1CCCCC1)C(=O)O; Carboxymethyl = O=C(O)C*; NMeA = CN[C@@H](C)C(=O)O; Nle = CCCC[C@H](N)C(=O)O; Orn = NCCC[C@H](N)C(=O)O; Dab = NCC[C@H](N)C(=O)O; Dap = NC[C@H](N)C(=O)O

T1 sequence (Q15116 25-288): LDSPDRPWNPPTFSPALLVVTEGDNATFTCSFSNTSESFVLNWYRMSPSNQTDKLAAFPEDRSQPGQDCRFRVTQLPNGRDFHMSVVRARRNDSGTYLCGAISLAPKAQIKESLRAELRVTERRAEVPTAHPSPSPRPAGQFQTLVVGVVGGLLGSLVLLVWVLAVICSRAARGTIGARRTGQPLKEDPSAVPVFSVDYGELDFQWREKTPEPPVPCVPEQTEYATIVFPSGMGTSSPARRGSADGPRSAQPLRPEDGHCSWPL

With `CC(C)C[C@@H]1NC(=O)[C@H](CCCNC(=N)N)NC(=O)[C@H](Cc2csc3ccccc23)NC(=O)[C@H](C)N(C)C(=O)[C@H](CCCNC(=N)N)NC(=O)[C@H](Cc2ccc(-c3ccccc3)cc2)NC(=O)[C@H](C(C)C)NC(=O)[C@H](Cc2c[nH]c3ccccc23)NC(=O)[C@H](CC(=O)O)NC(=O)[C@H](Cc2ccc(O)cc2)NC(=O)[C@H](Cc2cnc[nH]2)NC(=O)CSC[C@@H](C(=O)N[C@@H](C)C(N)=O)NC(=O)[C@H](CO)NC(=O)[C@H](C(C)C)NC1=O` [Compound 1040] ({CH2CO}-HYDWV[Bip]R[NMeA][Bta]RLVSCA-NH2; thioether N-14), the IC50 under setting [1] stood at 0.17 µM.

As for `CC(C)C[C@@H]1NC(=O)[C@H](CCCCN)NC(=O)[C@@H](CC(C)C)NC(=O)[C@H](C)N(C)C(=O)[C@H](CCCNC(=N)N)NC(=O)[C@H](Cc2ccc(-c3ccccc3)cc2)NC(=O)[C@H](C(C)C)NC(=O)[C@H](Cc2c[nH]c3ccccc23)NC(=O)[C@H](CC(=O)O)NC(=O)[C@H](Cc2ccc(O)cc2)NC(=O)[C@H](CC(N)=O)NC(=O)CSC[C@@H](C(=O)N[C@@H](CCC(=O)O)C(N)=O)NC(=O)[C@H]([C@@H](C)O)NC(=O)[C@H](C(C)C)NC1=O` [Compound 1173] ({CH2CO}-NYDWV[Bip]R[NMeA][dL]KLVTCE-NH2; thioether N-14), the IC50 under setting [1] was determined as 0.22 µM.

Consider `CC(C)C[C@@H]1NC(=O)[C@H](CCN)NC(=O)[C@@H](CC(C)C)NC(=O)[C@H](C)N(C)C(=O)[C@H](CCCNC(=N)N)NC(=O)[C@H](Cc2ccc(-c3cc(F)cc(F)c3)cc2)NC(=O)[C@H](C(C)C)NC(=O)[C@H](Cc2c[nH]c3ccccc23)NC(=O)[C@H](CC(=O)O)NC(=O)[C@H](Cc2ccc(O)cc2)NC(=O)[C@H](CC(N)=O)NC(=O)CSC[C@@H](C(=O)N[C@@H](C)C(N)=O)NC(=O)[C@H]([C@@H](C)O)NC(=O)[C@H](C(C)C)NC1=O` [Compound 1220] ({CH2CO}-NYDWV[X29]R[NMeA][dL][Dab]LVTCA-NH2; thioether N-14), for which, under setting [1], the IC50 is 0.26 µM.

Turning to `CC(C)C[C@@H]1NC(=O)[C@H](CCN)NC(=O)[C@@H](CC(C)C)NC(=O)[C@H](C)N(C)C(=O)[C@H](CCCNC(=N)N)NC(=O)[C@H](Cc2ccc(-c3ccccc3)cc2)NC(=O)[C@H](C(C)C)NC(=O)[C@H](Cc2c[nH]c3ccccc23)NC(=O)[C@H](CC(=O)O)NC(=O)[C@H](Cc2ccc(O)cc2)NC(=O)[C@H](CN)NC(=O)CSC[C@@H](C(=O)N[C@@H](C)C(N)=O)NC(=O)[C@H]([C@@H](C)O)NC(=O)[C@H](C(C)C)NC1=O` [Compound 1350] ({CH2CO}-[Dap]YDWV[Bip]R[NMeA][dL][Dab]LVTCA-NH2; thioether N-14), the IC50 under setting [1] worked out at 0.03 µM.

As for `CC[C@H](C)[C@@H]1NC(=O)[C@H](Cc2ccc(-c3ccccc3)cc2)NC(=O)[C@H](C(C)C)NC(=O)[C@H](Cc2cccc(C)c2)NC(=O)[C@H](CC(=O)O)NC(=O)[C@H](Cc2ccc(O)cc2)NC(=O)[C@H](CC(N)=O)NC(=O)CSC[C@@H](C(=O)N[C@@H](CCN)C(N)=O)NC(=O)[C@H]([C@@H](C)O)NC(=O)[C@H](C(C)(C)O)NC(=O)[C@H](CC2CCCCC2)NC(=O)[C@H](CCN)NC(=O)[C@@H](CC(C)C)NC(=O)[C@H](C)N(C)C1=O` [Compound 1689] ({CH2CO}-NYD[Phe(3-Me)]V[Bip]I[NMeA][dL][Dab][Cha][Val(3-OH)]TC[Dab]-NH2; thioether N-14), the IC50 under setting [1] amounted to 0.02 µM.

As for `CC(C)C[C@@H]1NC(=O)[C@H](CCN)NC(=O)[C@@H](CC(C)C)NC(=O)[C@H](C)N(C)C(=O)[C@H](CCCNC(=N)N)NC(=O)[C@H](Cc2ccc(-c3ccccc3)cc2)NC(=O)[C@H](C(C)C)NC(=O)[C@H](Cc2c[nH]c3ccccc23)NC(=O)[C@H](CC(=O)O)NC(=O)[C@H](Cc2ccc(C(=O)O)cc2)NC(=O)[C@H](CN)NC(=O)CSC[C@@H](C(=O)N[C@@H](C)C(N)=O)NC(=O)[C@H]([C@@H](C)O)NC(=O)[C@H](C(C)C)NC1=O` [Compound 1451] ({CH2CO}-[Dap][Phe(4-COOH)]DWV[Bip]R[NMeA][dL][Dab]LVTCA-NH2; thioether N-14), the IC50 under setting [1] came to 0.08 µM.

In the case of `CC(C)C[C@@H]1NC(=O)[C@H](CCCN)NC(=O)[C@@H](Cc2csc3ccccc23)NC(=O)[C@H](C)N(C)C(=O)[C@H](CCCNC(=N)N)NC(=O)[C@H](Cc2ccc(-c3ccccc3)cc2)NC(=O)[C@H](C(C)C)NC(=O)[C@H](Cc2c[nH]c3ccccc23)NC(=O)[C@H](CC(=O)O)NC(=O)[C@H](Cc2ccc(O)cc2)NC(=O)[C@H](Cc2ccccc2)NC(=O)CSC[C@@H](C(=O)N[C@@H](C)C(N)=O)NC(=O)[C@H]([C@@H](C)O)NC(=O)[C@H](C(C)C)NC1=O` [Compound 1171] ({CH2CO}-FYDWV[Bip]R[NMeA][dBta][Orn]LVTCA-NH2; thioether N-14), under setting [1], the IC50 amounted to 0.15 µM.

With `CC(C)C[C@@H]1NC(=O)[C@H](Cc2c[nH]c3ccccc23)NC(=O)[C@H](CC(=O)O)NC(=O)[C@H](Cc2ccccc2F)NC(=O)[C@H](Cc2ccccc2)NC(=O)CSC[C@@H](C(=O)N[C@@H](C)C(N)=O)NC(=O)[C@H](CO)NC(=O)[C@H](C(C)C)NC(=O)[C@H](CC(C)C)NC(=O)[C@H](CC(N)=O)NC(=O)[C@@H](C)NC(=O)[C@H](C)N(C)C(=O)[C@H](C(C)C)NC(=O)[C@H](Cc2ccc(-c3ccccc3)cc2)NC1=O` [Compound 1735] ({CH2CO}-F[Phe(2-F)]DWL[Bip]V[NMeA][dA]NLVSCA-NH2; thioether N-14), under setting [1], the IC50 was found to be 0.02 µM.

For `CC(C)C[C@@H]1NC(=O)[C@H](Cc2c[nH]c3ccccc23)NC(=O)[C@H](Cc2nn[nH]n2)NC(=O)[C@H](Cc2ccc(O)cc2)NC(=O)[C@H](Cc2ccccc2)NC(=O)CSC[C@@H](C(=O)N[C@@H](C)C(N)=O)NC(=O)[C@H](CO)NC(=O)[C@H](C(C)C)NC(=O)[C@H](CC(C)C)NC(=O)[C@H](CC(N)=O)NC(=O)[C@@H](C)NC(=O)[C@H](C)N(C)C(=O)[C@H](C(C)C)NC(=O)[C@H](Cc2ccc(-c3ccccc3)cc2)NC1=O` [Compound 1540] ({CH2CO}-FY[Ala(1H-tetrazol-5-yl)]WL[Bip]V[NMeA][dA]NLVSCA-NH2; thioether N-14), the IC50 under setting [1] stood at 0.03 µM.

Regarding `CCCC[C@@H]1NC(=O)[C@H](CCCNC(=N)N)NC(=O)[C@@H](CC(C)C)NC(=O)[C@H](C)N(C)C(=O)[C@H](C(C)C)NC(=O)[C@H](Cc2ccc(-c3ccccc3)cc2)NC(=O)[C@H](C(C)C)NC(=O)[C@H](Cc2c[nH]c3ccccc23)NC(=O)[C@H](CC(=O)O)NC(=O)[C@H](Cc2ccc(O)cc2)NC(=O)[C@H](CC(N)=O)NC(=O)CSC[C@@H](C(=O)N[C@@H](C)C(N)=O)NC(=O)[C@H]([C@@H](C)O)NC(=O)[C@H](C(C)C)NC1=O` [Compound 1293] ({CH2CO}-NYDWV[Bip]V[NMeA][dL]R[Nle]VTCA-NH2; thioether N-14), under setting [1], the IC50 was found to be 0.07 µM.

Consider `CCC(C)[C@@H]1NC(=O)[C@H](Cc2ccc(-c3ccccc3)cc2)NC(=O)[C@H](CCC(=O)O)NC(=O)[C@H](Cc2c[nH]c3ccccc23)NC(=O)[C@H](CC(N)=O)NC(=O)[C@H](Cc2ccc(O)cc2)NC(=O)[C@H](Cc2ccncc2)NC(=O)CSC[C@@H](C(=O)N[C@@H](C)C(N)=O)NC(=O)[C@H](C(C)O)NC(=O)[C@H](CCN)NC(=O)[C@H](CC(C)C)NC(=O)[C@H](CC(N)=O)NC(=O)[C@@H](CC(C)C)NC(=O)[C@H](C)N(C)C1=O` (stereo partly drawn) [Compound 2059] ({CH2CO}-[4Pal]YNWE[Bip][Ile(3ξ)][NMeA][dL]NL[Dab][Thr(3ξ)]CA-NH2; thioether N-14), for which the IC50 under setting [1] is 0.74 µM.

For `CC(C)C[C@@H]1NC(=O)[C@H](CCCNC(=N)N)NC(=O)[C@@H](Cc2ccncc2)NC(=O)[C@H](C)N(C)C(=O)[C@H](CCCNC(=N)N)NC(=O)[C@H](Cc2ccc(-c3ccccc3)cc2)NC(=O)[C@H](C(C)C)NC(=O)[C@H](Cc2c[nH]c3ccccc23)NC(=O)[C@H](CC(=O)O)NC(=O)[C@H](Cc2ccc(O)cc2)NC(=O)[C@H](Cc2ccccc2)NC(=O)CSC[C@@H](C(=O)N[C@@H](C)C(N)=O)NC(=O)[C@H]([C@@H](C)O)NC(=O)[C@H](C(C)C)NC1=O` [Compound 1072] ({CH2CO}-FYDWV[Bip]R[NMeA][d4Pal]RLVTCA-NH2; thioether N-14), the IC50 under setting [1] amounted to 0.18 µM.

Regarding `CCC(C)[C@@H]1NC(=O)[C@H](Cc2ccc(-c3ccccc3)cc2)NC(=O)[C@H](C(C)C)NC(=O)[C@H](Cc2c[nH]c3ccccc23)NC(=O)[C@H](CC(=O)O)NC(=O)[C@H](Cc2ccc(OCC(=O)O)cc2)NC(=O)[C@H](C(C)O)NC(=O)CSC[C@@H](C(=O)N[C@H](CO)C(=O)NCC(=O)N[C@@H](CO)C(N)=O)NC(=O)[C@H](CO)NC(=O)[C@H](C(C)C)NC(=O)C(CC2CCCCC2)NC(=O)[C@H](CCN)NC(=O)[C@@H](CC(C)C)NC(=O)[C@H](C)N(C)C1=O` (stereo partly drawn) [Example 5006] ({CH2CO}-[Thr(3ξ)]Y(Carboxymethyl)DWV[Bip][Ile(3ξ)][NMeA][dL][Dab][ξCha]VSC[dS]GS-NH2; thioether N-14), the IC50 (Jurkat-PD-1 cells, PE-labeled PD-L1-Ig, μM, read-out: CBA Method 1 μM) amounted to 0.02 µM.

On to `CCC(C)[C@@H]1NC(=O)[C@H](Cc2ccc(-c3ccccc3)cc2)NC(=O)[C@H](C(C)C)NC(=O)[C@H](Cc2c[nH]c3ccccc23)NC(=O)[C@H](CC(=O)O)NC(=O)[C@H](Cc2ccc(O)cc2)NC(=O)[C@H](CCN)NC(=O)CSC[C@@H](C(=O)N[C@H](C(N)=O)C(C)C)NC(=O)[C@H](C(C)O)NC(=O)[C@H](C(C)(C)O)NC(=O)[C@H](CC2CCCCC2)NC(=O)[C@H](CC(N)=O)NC(=O)[C@@H](CC(C)C)NC(=O)[C@H](C)N(C)C1=O` (stereo partly drawn) [Compound 2173] ({CH2CO}-[Dab]YDWV[Bip][Ile(3ξ)][NMeA][dL]N[Cha][Val(3-OH)][Thr(3ξ)]CV-NH2; thioether N-14), for which, under setting [1], the IC50 was 0.19 µM.

As to `CCOc1cccc(-c2ccc(C[C@@H]3NC(=O)[C@H](C(C)C)NC(=O)[C@H](Cc4c[nH]c5ccccc45)NC(=O)[C@H](CC(=O)O)NC(=O)[C@H](Cc4ccc(O)cc4)NC(=O)[C@H](CC(N)=O)NC(=O)CSC[C@@H](C(=O)N[C@@H](C)C(N)=O)NC(=O)[C@H]([C@@H](C)O)NC(=O)[C@H](C(C)C)NC(=O)[C@H](CC(C)C)NC(=O)[C@H](CCN)NC(=O)[C@@H](CC(C)C)NC(=O)[C@H](C)N(C)C(=O)[C@H](CCCNC(=N)N)NC3=O)cc2)c1` [Compound 1221] ({CH2CO}-NYDWV[X30]R[NMeA][dL][Dab]LVTCA-NH2; thioether N-14), under setting [1], the IC50 stood at 0.22 µM.

These data come from patent US20240409585A1, “MACROCYCLIC IMMUNOMODULATORS” (priority 2021, published 2024).
